The results in this text go back to ChEMBL document CHEMBL5137008, “Recent advances of antitumor shikonin/alkannin derivatives: A comprehensive overview focusing on structural classification, synthetic approaches, and mechanisms of action” (Eur J Med Chem, 2022).

One assay concerns SNU1. Kind of assay: Anticancer activity against human SNU1 cells assessed as reduction in cell viability for 72 hrs by MTT assay. It counts as functional, cell-based. Particulars: SNU1, 72 h.
Another assay relates to A549. Kind of assay: Anticancer activity against human A549 cells. The assay is classed as functional. Particulars: read-out: ED50 (the source's name).
The next assay concerns SMMC-7721. Kind of assay: Anticancer activity against human SMMC-7721 cells assessed as inhibition of cell proliferation incubated for 48 hrs by MTT assay. It counts as functional, cell-based. To be noted: SMMC-7721, 48 h. For orientation: Formazan colour is commonly taken as a measure of viable cells.
The next assay deals with MGC-803. Kind of assay: Anticancer activity against human MGC-803 cells assessed as inhibition of cell proliferation incubated for 48 hrs by MTT assay. It counts as functional, cell-based. To be noted: MGC-803, 48 h.
The subject of the next assay is Sarcoma-180. Kind of assay: Antitumor activity against mouse Sarcoma-180 cells xenografted in ip dosed ICR mouse assessed as tumor growth inhibition rate administered daily for 7 days relative to control. Particulars: time 7 day. The assay is classed as functional.
Assay [1] relates to L1210. Put plainly: Anticancer activity against mouse L1210 cells assessed as reduction in cell viability for 72 hrs by MTT assay. It counts as functional. To be noted: read-out: ED50 (the source's name).
A further assay deals with SGC-7901. Kind of assay: Anticancer activity against human SGC-7901 cells assessed as inhibition of cell proliferation incubated for 48 hrs by MTT assay. Particulars: SGC-7901, 48 h. It counts as functional, cell-based.
The next assay has as its system U-87 MG. Kind of assay: Anticancer activity against human U87 cells assessed as inhibition of cell proliferation incubated for 48 hrs by MTT assay. The assay is classed as functional, cell-based, U-87MG ATCC.
Assay [2] relates to L1210. Put plainly: Anticancer activity against mouse L1210 cells. The assay is classed as functional. Particulars: read-out: ED50 (the source's name).

Molecules are shown by their SMILES.

Consider `COc1cccc2c1C(=O)c1c(O)c3c(c(O)c1C2=O)C[C@@](O)(C(=O)CO)C[C@@H]3O[C@H]1C[C@H](N)[C@H](O)[C@H](C)O1.Cl` [DOXORUBICIN HYDROCHLORIDE], for which the IC50 (in general, the midpoint of a concentration-inhibition curve) in the assay with SNU1 was 2010 nM; in the assay with SMMC-7721, 460 nM; with MGC-803 it was 480 nM; in the assay with SGC-7901 it was 720 nM; in the assay on U-87 MG it was 570 nM. In addition, the EC50 stood at 1.01 µg/mL in the assay with A549, 0.07 µg/mL in the assay on L1210 [1] and 0.016 µg/mL with L1210 [2]. For the same molecule, the T/C (usually the result in the treated group divided by that in the control group, in per cent) in the assay on Sarcoma-180 was determined as 315%.
